Assays:
LA1-5S cells [1] = assay: Cell viability (crystal violet), ABTL0812 with topotecan; assay type: cell-based; details: ABTL0812 30 μM + topotecan 0.5, 1, 2 μM; 72 hours
Protocol: Methods: LA1-5S cells were incubated with increasing concentrations of topotecan (0.5 μM, 1 μM and 2 μM) and a fixed concentration of ABTL0812 (30 μM). Cells were treated for 72 hours in IMDM with 0.5% FBS. Cell viability was evaluated by crystal violet assay. Data is presented as mean±SEM of three independent experiments. Statistical analyses were performed according to the T-Test principle with GraphPad Prism® 5.0 software.

LA1-5S cells [2] = assay: Cell viability (crystal violet), ABTL0812 with cyclophosphamide; assay type: cell-based; details: ABTL0812 30 μM + cyclophosphamide 1, 1.5, 2 μM; 72 hours
Protocol: Methods: LA1-5S cells were incubated with increasing concentrations of cyclophosphamide (1 μM, 1.5 μM and 2 μM) and a subIC50 fixed concentration of ABTL0812 (30 μM). Cells were treated for 72 hours in IMDM with 0.5% FBS. Cell viability was evaluated by crystal violet assay. Data is presented as mean±SEM of three independent experiments. Statistical analyses were performed according to the T-Test principle with GraphPad Prism® 5.0 software (*p<0.05; **p<0.01; ***p<0.001).

[3] = tested on: THP-1 human macrophage cells; assay: M1/M2 macrophage polarization, marker mRNA by RT-qPCR; assay type: cell-based
Protocol: Methods: THP-1 monocytes growing in suspension are differentiated to macrophages by incubation with PMA for 24 hours, inducing their attachment to the plates. Once THP-1 are differentiated to macrophages, these are polarized to M1 by incubation with LPS for 6 or 24 hours in the presence of ABTL0812 (50 or 100 μM). In parallel, differentiated macrophages are polarized to M2 by incubation with IL-4 and IL-13 for 24 hours in the presence of ABTL0812 (50 μM). Then, polarized macrophages are lysed, total RNA extracted, retrotranscribed to cDNA and mRNA levels of IL1β, TNFα (M1 markers) and […] (M2 marker) were evaluated by RT-qPCR using specific probes.

[4] = tested on: PMA-activated THP-1 macrophages; assay: Conditioned media of ABTL0812-treated MiaPaca2 cells on THP-1 macrophages; assay type: cell-based, human; details: conditioned media from MiaPaca2 cells treated with ABTL0812 40 μM 72 hours
Protocol: Methods: MiaPaca2 cells were incubated with 40 μM of ABTL0812 during 72 hours and conditioned media (RPMI) of these ABTL0812-treated cells were collected. In parallel, human THP-1 cells were differentiated to macrophages by incubation with PMA (Phorbol myristate acetate) for 24 hours, inducing their attachment to the plates. Then, conditioned media from ABTL0812-treated MiaPaca2 cells was transferred to PMA-activated THP-1 macrophages and incubated during 24 hours for RT-qPCR analysis of M1 phenotype markers IL-1β and TNF-α, or during 48 hours for cell viability studies using the MTT assay. For M1 marker analysis, cells were collected, RNA extracted, retrotranscribed to cDNA and mRNA levels of IL-1β and TNF-α assessed by RT-qPCR.

[5] = tested on: human immortalized THP1 macrophages and human primary macrophages; assay: Secretome of THP1 and primary macrophages, cytokine antibody array; assay type: cell-based
Protocol: Methods: Whole blood was collected from healthy donors, and circulating monocytes were purified using immunomagnetic separation. Monocytes were selected using anti-CD14 antibodies bound to magnetic beads, which were retained in the magnetic column and further eluted for culturing in vitro. Monocytes were differentiated to macrophages incubating with M-CSF1 at 20 ng/mL for 7 days. Once primary monocytes were differentiated to macrophages, these were polarized to M1 by incubation with LPS for 6 or 24 hours in the presence of ABTL0812 (50 or 100 μM). In parallel, differentiated macrophages were polarized to M2 by incubation with IL-4 and IL-13 for 24 hours in the presence of ABTL0812 (50 μM). THP-1 monocytes growing in suspension were differentiated to macrophages by incubation with PMA for 24 hours, inducing their attachment to the plates. Once THP-1 were differentiated to macrophages, these were polarized to M1 by incubation with LPS for 6 or 24 hours in the presence of ABTL0812 (50 μM). In parallel, differentiated macrophages were polarized to M2 by incubation with IL-4 and IL-13 for 24 hours in the presence of ABTL0812 (50 μM). The culture media from ABTL0812 treated M1, M2 and differentiated macrophages (M0) were incubated using the RayBio C-Series Human Cytokine Antibody Array C3 (RayBiotec). Culture media was incubated with a PVDF (Polyvinylidene fluoride) membrane containing antibodies against 42 different cytokines. After incubation of culture media, the membrane was incubated with secondary antibodies and further developed using HRP (Horseradish peroxidase) substrate.

[6] = tested on: Ishikawa endometrial cancer cells; assay: Co-culture of ABTL0812-treated cancer cells with activated T cells, MTT; assay type: cell-based, human; details: ABTL0812 50 μM 6 hours, then co-culture with activated T lymphocytes 24 hours
Protocol: Methods: human PBMCs were purified from peripheral blood of healthy donors using Ficoll and cultured in vitro. Human T cells were activated by incubation with IL-2 and CD3 and CD28 antibodies for 10 days. In parallel, Ishikawa endometrial cancer cells were treated with ABTL0812 at 50 μM for 6 hours and then co-cultured with activated T lymphocytes for 24 hours. Then, cell viability was assessed by the MTT assay. Untreated Ishikawa cells were used as controls.

LLC1 cells = assay: Syngeneic lung cancer model, subcutaneous LLC1, tumor volume; assay type: in vivo, C57BL6 mice; details: ABTL0812 oral 120 mg/kg/day; anti-PD1 i.p. 100 μg/dose every three days; carboplatin and paclitaxel i.p. once a week
Protocol: C57BL6 mice were injected with 0.25×10^6 LLC1 cells in one flank to induce tumor formation. […] Tumor volume and body weight were monitored 3 times a week.

[7] = macrophages polarized to M1 (LPS 6 or 24 hours), ABTL0812 50 or 100 μM
[8] = common in immortalized THP1 cells and in primary macrophages

Compound: CCCCC/C=C\C/C=C\CCCCCCC(O)C(=O)O (stereo not drawn) [ABTL0812, COOH—CHOH—(CH2)6—(CH═CH—CH2)2—(CH2)3—CH3]
- topotecan cytotoxicity on addition of ABTL0812 (LA1-5S cells [1]): significantly increased topotecan cytotoxicity
- cyclophosphamide cytotoxicity on addition of ABTL0812 (LA1-5S cells [2]): significantly increased cyclophosphamide cytotoxicity at 1 μM
- expression of IL-1β ([3]; differentiated macrophages without polarizing, ABTL0812 alone): significantly induce the expression of IL-1β
- IL-1β mRNA levels [3, 7]: significantly potentiates
- TNFα mRNA levels [3, 7]: significantly potentiates
- IL-10 mRNA levels ([3]; macrophages polarized to M2 (IL-4 and IL-13, 24 hours), ABTL0812 50 μM): significantly suppresses
- gene expression of IL-1β ([4]; 24 hours on macrophages): significantly increasing the gene expression
- gene expression of TNF-α ([4]; 24 hours on macrophages): significantly increasing the gene expression
- THP-1 cell viability (MTT) ([4]; 48 hours on macrophages): significantly increasing THP-1 cell viability
- secreted IL-1β ([5]; ABTL0812 50 or 100 μM): upregulation
- secreted TNF-α ([5]; ABTL0812 50 or 100 μM): upregulation
- secreted CCL7 [5, 8]: inhibited
- secreted CCL8 [5, 8]: inhibited
- secreted CCL17 [5, 8]: inhibited
- secreted CCL22 [5, 8]: inhibited
- secreted IL-10 [5, 8]: inhibited
- cytotoxic effect of activated T cells on cancer cells [6]: potentiates the cytotoxic effect of activated T cells
- tumor volume (LLC1 cells): significantly reduced tumor volume
